Values quoted from earlier work in patent US6469069B1, “Propofol composition containing sulfite” (Gensia Sicor Pharmaceuticals, Inc., priority 1998, dated 2002).

System: likely microbial contaminants
Conditions: 1% Diprivan (Zeneca) 0.1% Na2S2O5

In the case of O=S([O-])S(=O)(=O)[O-].[Na+].[Na+] [sodium metabisulfite, Sodium metabisulfite], the “Preservative effect in propofol emulsion (in words)” value is listed as “completely ineffectual”.
